# Results: PMC3752463 (Biochemical and biophysical research communications, 2013)
# Square brackets hold non-standard residues; d marks the D form. Ends that are not written are not given here.
# How the values were obtained:
# CXCR4 [1] = target: T1, CXCR4 (Homo sapiens, UniProt P61073); settings: ref [12], cited from earlier work; for IC50: read-out: IC50 (anti-CXCR4 mAb 12G5 competitive assay), previously reported, anti-CXCR4 mAb 12G5 competitive assay
# CXCR4 [2] = target: T1, CXCR4; settings: 12G5 CXCR4 competitive binding assay
# HIV = settings: ref [12]; cited from earlier work
# T1 sequence (P61073 whole entry): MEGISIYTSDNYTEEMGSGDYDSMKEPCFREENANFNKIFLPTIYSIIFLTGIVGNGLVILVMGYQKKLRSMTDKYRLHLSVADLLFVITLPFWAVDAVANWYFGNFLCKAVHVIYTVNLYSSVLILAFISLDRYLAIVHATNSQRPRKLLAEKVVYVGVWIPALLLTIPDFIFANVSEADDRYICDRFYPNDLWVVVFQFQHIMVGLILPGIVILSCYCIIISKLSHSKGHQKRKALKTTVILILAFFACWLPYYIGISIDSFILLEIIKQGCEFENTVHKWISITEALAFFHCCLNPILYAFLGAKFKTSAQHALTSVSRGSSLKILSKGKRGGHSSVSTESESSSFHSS
sequence,measurement,setting,value
LGASWHRPDK ([dL]G[dA][dS][dW][dH][dR][dP][dD][dK]-NH2; N-terminus assumed; SMILES CC(C)C[C@@H](N)C(=O)NCC(=O)N[C@H](C)C(=O)N[C@H](CO)C(=O)N[C@H](Cc1c[nH]c2ccccc12)C(=O)N[C@H](Cc1c[nH]cn1)C(=O)N[C@H](CCCNC(=N)N)C(=O)N1CCC[C@@H]1C(=O)N[C@H](CC(=O)O)C(=O)N[C@H](CCCCN)C(N)=O) [DV3],IC50,CXCR4 [1],440 nM
LGASWHRPDK [DV3],CXCR4 binding potency relative to DV1,CXCR4 [2],about two-fold less potent than DV1
LGASWHRPDKCCLGYQKRPLP ([dL]G[dA][dS][dW][dH][dR][dP][dD][dK][dC][dC][dL]G[dY][dQ][dK][dR][dP][dL][dP]-NH2; cysteine pairing not given here) [DV1],IC50,CXCR4 [1],236 nM
LGASWHRPDKCCLGYQKRPLP [DV1],anti-HIV entry activity (in words),HIV,anti-HIV entry activity
same,"CXCR4 binding affinity (in words), earlier work",CXCR4 [1]; in words,moderate binding affinity with CXCR4
